In experiment [1] the target is T1, kinases of the scanMAX Kinase assay panel (Homo sapiens, UniProt P04629).
T1 construct: purchased DiscoverX Co. (contract measurement) scanMAX Kinase assay panel
The experiment in a line: Kinase selectivity, DiscoverX scanMAX Kinase assay panel (% control). Type of experiment: binding. The following applies: kinase TRKA; 1 uM in DMSO. The procedure, abridged:
(§1)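 Compounds were tested at 1 uM (in DMSO) against each panel kinase. % control was calculated as (compound − positive control)/(negative control − positive control)×100, where the positive control gives 0% and DMSO gives 100%. Activity toward a kinase was called at % control <35%.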

For experiment [2], the target named is T2, kinases of the scanMAX Kinase assay panel (Homo sapiens, UniProt O14920).
T2 construct: purchased DiscoverX Co. (contract measurement) scanMAX Kinase assay panel
T2 sequence (O14920 1-756): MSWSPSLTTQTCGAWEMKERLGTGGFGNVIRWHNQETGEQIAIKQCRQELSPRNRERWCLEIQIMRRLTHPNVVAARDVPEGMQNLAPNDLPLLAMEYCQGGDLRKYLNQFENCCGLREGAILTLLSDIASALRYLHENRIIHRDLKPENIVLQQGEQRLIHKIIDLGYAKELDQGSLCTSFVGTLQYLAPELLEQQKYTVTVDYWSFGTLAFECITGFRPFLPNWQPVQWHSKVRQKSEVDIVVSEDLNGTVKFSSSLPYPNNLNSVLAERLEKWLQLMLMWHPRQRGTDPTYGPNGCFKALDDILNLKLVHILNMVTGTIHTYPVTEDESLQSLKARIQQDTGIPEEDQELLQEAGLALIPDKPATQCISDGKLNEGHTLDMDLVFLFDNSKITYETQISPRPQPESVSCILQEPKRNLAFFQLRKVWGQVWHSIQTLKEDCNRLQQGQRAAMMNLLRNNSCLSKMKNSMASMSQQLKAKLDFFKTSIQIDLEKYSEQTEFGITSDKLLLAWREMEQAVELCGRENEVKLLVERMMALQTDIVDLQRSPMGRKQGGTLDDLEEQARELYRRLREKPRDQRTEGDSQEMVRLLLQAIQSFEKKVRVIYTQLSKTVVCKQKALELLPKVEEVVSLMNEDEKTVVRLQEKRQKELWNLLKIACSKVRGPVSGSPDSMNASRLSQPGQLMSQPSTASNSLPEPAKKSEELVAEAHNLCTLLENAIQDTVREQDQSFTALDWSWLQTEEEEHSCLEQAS
Described as above. The settings on record: IKK-beta; 1 uM. The class given is binding. The procedure, abridged: as §1

The target of experiment [3] is T3, kinases of the scanMAX Kinase assay panel (Homo sapiens, UniProt O14976).
T3 construct: purchased DiscoverX Co. (contract measurement) scanMAX Kinase assay panel
T3 sequence (O14976 1-1311): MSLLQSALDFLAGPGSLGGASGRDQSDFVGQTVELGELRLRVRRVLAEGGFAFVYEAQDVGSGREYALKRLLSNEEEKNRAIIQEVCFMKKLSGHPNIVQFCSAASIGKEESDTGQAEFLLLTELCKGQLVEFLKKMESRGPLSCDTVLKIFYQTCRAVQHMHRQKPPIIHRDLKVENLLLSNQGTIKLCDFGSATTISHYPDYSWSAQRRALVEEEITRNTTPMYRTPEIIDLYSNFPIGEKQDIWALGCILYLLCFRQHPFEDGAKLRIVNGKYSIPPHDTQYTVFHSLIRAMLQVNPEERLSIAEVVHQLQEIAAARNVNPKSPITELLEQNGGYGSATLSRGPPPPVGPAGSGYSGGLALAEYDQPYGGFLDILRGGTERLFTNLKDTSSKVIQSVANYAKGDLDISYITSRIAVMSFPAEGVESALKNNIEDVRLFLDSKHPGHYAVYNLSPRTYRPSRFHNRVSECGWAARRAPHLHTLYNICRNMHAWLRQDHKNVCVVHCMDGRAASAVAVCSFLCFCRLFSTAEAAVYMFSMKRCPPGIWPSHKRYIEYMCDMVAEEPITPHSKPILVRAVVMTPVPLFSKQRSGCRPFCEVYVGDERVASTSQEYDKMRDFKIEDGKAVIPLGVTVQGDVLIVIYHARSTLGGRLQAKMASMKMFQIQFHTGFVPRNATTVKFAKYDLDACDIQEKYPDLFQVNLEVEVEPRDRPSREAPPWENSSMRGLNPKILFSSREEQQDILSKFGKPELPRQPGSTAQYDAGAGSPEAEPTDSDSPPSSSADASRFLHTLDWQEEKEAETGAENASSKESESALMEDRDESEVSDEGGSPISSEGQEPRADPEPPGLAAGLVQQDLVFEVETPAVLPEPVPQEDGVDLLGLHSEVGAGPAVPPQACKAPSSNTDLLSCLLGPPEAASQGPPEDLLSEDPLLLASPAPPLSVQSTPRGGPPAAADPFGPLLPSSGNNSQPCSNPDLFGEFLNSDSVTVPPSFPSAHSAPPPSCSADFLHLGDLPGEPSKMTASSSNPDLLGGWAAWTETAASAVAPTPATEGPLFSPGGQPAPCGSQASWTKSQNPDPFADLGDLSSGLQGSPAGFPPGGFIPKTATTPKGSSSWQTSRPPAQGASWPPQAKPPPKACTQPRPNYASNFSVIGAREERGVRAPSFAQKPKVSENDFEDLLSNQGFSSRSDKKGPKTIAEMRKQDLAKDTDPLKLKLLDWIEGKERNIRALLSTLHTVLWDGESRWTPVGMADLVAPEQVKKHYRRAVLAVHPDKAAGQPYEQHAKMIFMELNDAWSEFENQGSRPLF
The description is as above. The settings on record: GAK; 1 uM. Type of experiment: binding. The procedure, abridged: as §1

In a further experiment the target is T4, recombinant LRRK2 kinase (Homo sapiens, UniProt Q5S007).
T4 construct: purchased Signal Chem, Richmond, BC, Canada
T4 sequence (Q5S007 whole entry): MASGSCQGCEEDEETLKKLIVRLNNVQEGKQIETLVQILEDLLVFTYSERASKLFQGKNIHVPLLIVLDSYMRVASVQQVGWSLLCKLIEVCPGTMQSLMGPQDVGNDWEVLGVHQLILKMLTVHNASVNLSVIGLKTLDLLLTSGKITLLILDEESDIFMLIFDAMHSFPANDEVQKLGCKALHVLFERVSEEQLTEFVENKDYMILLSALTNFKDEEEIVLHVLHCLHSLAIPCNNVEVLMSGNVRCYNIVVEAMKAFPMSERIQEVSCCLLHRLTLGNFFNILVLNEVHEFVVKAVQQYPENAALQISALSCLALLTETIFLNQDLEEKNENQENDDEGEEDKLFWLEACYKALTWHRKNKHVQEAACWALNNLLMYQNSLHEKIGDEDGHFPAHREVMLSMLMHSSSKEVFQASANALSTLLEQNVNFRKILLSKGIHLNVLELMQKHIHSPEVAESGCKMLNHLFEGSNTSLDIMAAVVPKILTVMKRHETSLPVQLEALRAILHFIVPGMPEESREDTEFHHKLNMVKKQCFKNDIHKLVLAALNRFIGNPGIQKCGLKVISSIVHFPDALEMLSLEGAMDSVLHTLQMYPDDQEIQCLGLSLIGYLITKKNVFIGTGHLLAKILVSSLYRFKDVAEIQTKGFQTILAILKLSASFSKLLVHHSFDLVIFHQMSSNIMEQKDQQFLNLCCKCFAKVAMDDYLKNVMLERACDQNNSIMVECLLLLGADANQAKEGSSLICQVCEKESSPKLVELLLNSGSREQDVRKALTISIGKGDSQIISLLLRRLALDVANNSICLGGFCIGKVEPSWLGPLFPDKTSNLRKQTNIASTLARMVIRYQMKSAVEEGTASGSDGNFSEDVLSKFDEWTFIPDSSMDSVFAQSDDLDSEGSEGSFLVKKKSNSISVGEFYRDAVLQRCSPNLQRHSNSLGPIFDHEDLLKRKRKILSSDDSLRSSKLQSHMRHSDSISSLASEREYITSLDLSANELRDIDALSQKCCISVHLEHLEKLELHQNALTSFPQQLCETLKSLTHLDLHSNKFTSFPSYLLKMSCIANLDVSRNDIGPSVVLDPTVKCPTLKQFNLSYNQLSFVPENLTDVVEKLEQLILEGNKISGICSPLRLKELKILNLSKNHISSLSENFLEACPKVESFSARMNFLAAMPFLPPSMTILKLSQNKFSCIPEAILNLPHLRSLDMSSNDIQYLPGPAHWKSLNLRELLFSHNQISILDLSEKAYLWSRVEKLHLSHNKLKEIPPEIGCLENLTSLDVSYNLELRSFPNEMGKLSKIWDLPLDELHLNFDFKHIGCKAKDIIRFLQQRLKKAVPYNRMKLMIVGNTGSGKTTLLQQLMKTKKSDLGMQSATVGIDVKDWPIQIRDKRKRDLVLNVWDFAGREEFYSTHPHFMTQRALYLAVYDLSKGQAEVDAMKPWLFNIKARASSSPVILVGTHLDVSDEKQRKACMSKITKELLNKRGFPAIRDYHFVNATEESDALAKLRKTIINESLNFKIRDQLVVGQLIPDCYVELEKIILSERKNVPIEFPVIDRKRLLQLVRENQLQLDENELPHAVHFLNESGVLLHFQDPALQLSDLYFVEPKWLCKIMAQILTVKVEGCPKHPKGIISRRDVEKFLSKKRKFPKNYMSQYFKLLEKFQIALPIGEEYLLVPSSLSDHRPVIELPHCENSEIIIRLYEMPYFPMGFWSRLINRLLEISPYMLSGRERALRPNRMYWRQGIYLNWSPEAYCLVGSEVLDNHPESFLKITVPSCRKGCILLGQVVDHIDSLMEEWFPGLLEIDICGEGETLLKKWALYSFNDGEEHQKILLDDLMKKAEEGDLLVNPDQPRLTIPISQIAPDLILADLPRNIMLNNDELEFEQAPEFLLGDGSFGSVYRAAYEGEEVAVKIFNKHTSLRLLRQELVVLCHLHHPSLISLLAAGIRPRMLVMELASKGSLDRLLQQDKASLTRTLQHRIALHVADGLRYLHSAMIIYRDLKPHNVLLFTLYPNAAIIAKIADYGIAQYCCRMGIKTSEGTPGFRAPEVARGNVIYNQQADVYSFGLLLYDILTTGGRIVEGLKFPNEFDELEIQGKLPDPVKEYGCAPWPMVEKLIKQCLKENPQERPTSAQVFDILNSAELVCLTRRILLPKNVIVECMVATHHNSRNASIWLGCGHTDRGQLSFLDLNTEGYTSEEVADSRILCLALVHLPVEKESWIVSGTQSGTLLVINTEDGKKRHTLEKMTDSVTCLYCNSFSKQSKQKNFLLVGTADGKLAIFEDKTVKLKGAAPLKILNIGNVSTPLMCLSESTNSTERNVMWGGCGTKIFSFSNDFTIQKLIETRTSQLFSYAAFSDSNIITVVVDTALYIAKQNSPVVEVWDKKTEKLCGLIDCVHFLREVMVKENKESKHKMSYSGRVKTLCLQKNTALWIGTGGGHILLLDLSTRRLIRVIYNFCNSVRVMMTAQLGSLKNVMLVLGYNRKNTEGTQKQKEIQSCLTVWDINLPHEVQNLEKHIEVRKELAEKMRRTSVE
The experiment in a line: LRRK2 kinase inhibition (Kinase-Glo luminescence). The settings on record: IC50 grade; 25 μmol/L ATP, LRRKtide, 30° C. 2 hours; read-out: Enzyme activity LRRK2. Type of experiment: biochemical. The procedure:
Upon completion of the reaction, an equal amount of Kinase-Glo (Promega, Madison, Wis.) solution was added thereto, followed by reaction for 40 minutes. A detection solution was added thereto, followed by further reaction at room temperature for 30 minutes. Then, IC50 of kinase was calculated by measuring the amount of luciferase using a microplate ELISA reader (Bio-Tek).

T1 sequence (P04629 33-796): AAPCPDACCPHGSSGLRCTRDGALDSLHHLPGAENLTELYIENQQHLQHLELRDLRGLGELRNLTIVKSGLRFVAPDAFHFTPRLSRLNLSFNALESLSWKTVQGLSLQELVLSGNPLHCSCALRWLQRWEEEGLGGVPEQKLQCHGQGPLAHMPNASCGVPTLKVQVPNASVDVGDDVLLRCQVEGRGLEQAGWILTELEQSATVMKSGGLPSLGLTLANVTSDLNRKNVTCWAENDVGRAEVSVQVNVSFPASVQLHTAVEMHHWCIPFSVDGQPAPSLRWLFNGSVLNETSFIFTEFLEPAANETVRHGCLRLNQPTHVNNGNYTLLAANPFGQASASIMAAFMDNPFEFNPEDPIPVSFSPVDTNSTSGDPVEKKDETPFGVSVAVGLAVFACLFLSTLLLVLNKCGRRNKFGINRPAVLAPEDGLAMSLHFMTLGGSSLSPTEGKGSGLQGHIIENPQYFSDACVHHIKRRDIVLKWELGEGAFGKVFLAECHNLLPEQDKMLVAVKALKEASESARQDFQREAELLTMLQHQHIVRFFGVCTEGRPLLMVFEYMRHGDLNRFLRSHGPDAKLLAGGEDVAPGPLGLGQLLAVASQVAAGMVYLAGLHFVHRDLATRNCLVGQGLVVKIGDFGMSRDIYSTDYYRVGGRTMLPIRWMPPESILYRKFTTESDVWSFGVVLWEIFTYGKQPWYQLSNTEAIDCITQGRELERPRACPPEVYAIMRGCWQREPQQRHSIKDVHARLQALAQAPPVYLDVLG

For the compound `CNc1nc(Nc2ccc(C(=O)N3CCOCC3)cc2OC)nc2[nH]cc(C#N)c12` [Example 1, 2-((2-methoxy-4-(morpholine-4-carbonyl)phenyl)amino)-4-(methylamino)-7H-pyrrolo[2,3-d]pyrimidine-5-carbonitrile], the remaining binding at 1 µM in experiment [1] was 67%; in experiment [2], 75%; in experiment [3], 11%. For the same compound, the IC50 at recombinant LRRK2 kinase is < 10 nM.
For the compound `CC1(Nc2nc(Nc3cnn([C@H]4CCN(C5COC5)C[C@@H]4F)c3Cl)nc3[nH]cc(C#N)c23)CC1` [Example 52, 2-((5-chloro-1-((3S,4S)-3-fluoro-1-(oxetane-3-yl)piperidine-4-yl)-1H-pyrazole-4-yl)amino)((1-methylcyclopropyl)amino)-7H-pyrrolo[2,3-d]pyrimidine-5-carbonitrile], the remaining binding at 1 µM in experiment [1] is 0.5%; in experiment [2], 9.7%; in experiment [3], 5.8%. Also, the IC50 at recombinant LRRK2 kinase is < 10 nM.
Regarding `CCNc1nc(Nc2ccc(C(=O)N3CCC(N4CCOCC4)CC3)cc2OC)nc2[nH]cc(C(F)(F)F)c12` [Example 104, (4-((4-(ethylamino)-5-(trifluoromethyl)-7H-pyrrolo[2,3-d]pyrimidine-2-yl)amino)-3-methoxyphenyl)(4-morpholinopiperidine-1-yl)methanone], the remaining binding at 1 µM in experiment [1] was determined as 98%; in experiment [2], 92%; in experiment [3] it was 1%. The IC50 on recombinant LRRK2 kinase is < 10 nM.
